Source: publication PMC3199744, “Preformulation and stability in biological fluids of the retrocyclin RC-101, a potential anti-HIV topical microbicide” (AIDS Research and Therapy, 2011)

Columns and labels:
HIV-1 = conditions: RC-101 at pH 7, data not shown
[1] = tested on: X4 and R5 strains of HIV-1; conditions: cited from earlier work
Source text: Defensins are cysteine-rich, cationic antimicrobial peptides expressed by the leucocytes and epithelial cells of mammals. […] Retrocyclins (θ-Defensin) are the evolutionary descendants of α-defensin genes. Retrocyclins are circular 18-residue, tetracyclic peptides with three cysteine disulfide bonds. RC-101 ([…]), a cationic retrocyclin analog synthesized by solid phase peptide synthesis, has shown activity against X4 and R5 strains of HIV-1 in vitro [4]. The mechanism occur ...

[2] = RC-101 solution / film control in water, detection by LC-MS/MS; type: physicochemical; conditions: 1:1 with water, 37°C, nanoLC-SRM MS, qualitative
Experimental: RC-101 100 μg/mL solutions were prepared by dissolving RC-101 in Milli Q water. RC-101 and placebo films were prepared by precasting a polymeric film solution into an 8-well-plate. The polymeric film solution was prepared as previously described by adding Milli Q water, PVA, and hydroxypropyl methyl cellulose (HPMC). The solution was then heated at 95°C for 20 minutes for complete dissolution of the polymers. After cooling, glycerin and RC-101 were added. Film solution (2.4 g) containing RC-101 was poured into each well of the 8-well plate. The plate was placed into a vacuum oven at 30 ± 2°C for 20 ± 4 h. All dried films were removed from the plates and stored at room temperature in PET/Aluminum foil pouches (Amcor Flexibles Healthcare Inc, Mundelein, IL) until further analysis. Placebo films were prepared in the same way without the addition of RC-101. […] For analytical purposes, films were dissolved in 1 mL of Milli Q water before addition to HVF.
The HVF from the Instead Softcup® was removed by centrifugation of the conical tube for 10 min at 5,000 rpm. […] HVF was then removed from the cup and the pH of each HVF sample was measured with Fisher Alkacid pH filter strips (Fisher Scientific). All samples collected on a specific day were pooled to be used for the research studies. If the pH of the individual samples was higher than 5, the sample was not included in the pool but it was stored at -80°C for separate analysis. If the sample contained blood, it was immediately discarded. Samples were prepared as described in Table 1. […] Because of its high viscosity, HVF was measured by weight and not by volume. All solutions were prepared fresh and incubated with HVF (or water) at 37°C for specific periods of time (0, 2, 6, 12, 24, 48, and 72 h), unless specified otherwise. At each time point, the samples were centrifuged at 10,000 rpm for 10 min to separate the supernatant from the epithelial cells as described in the cell processing section. Both parts (supernatant and cells) were stored at -80 ± C until analyzed by LC-MS/MS. To evaluate the influence of freezing the fluid prior to the analysis, the last pool of HVF was divided into two samples: one used fresh (at the time of collection), and the other one stored at -80°C for a 3-month period. After that time period, HVF was thawed and processed for blank and RC-101 solution only, as described in Table 1. HVF samples collected with a high pH value indicative of BV were stored at -80°C as previously mentioned. After confirmation of BV on those fluid samples by Gram stain score, the fluid samples (HVF BV^+) were thawed, pooled, and processed as described in Table 1.
At each time point, the sample was removed from the incubation chamber and centrifuged for 10 min at 10,000 rpm, at 4 ± C to separate the supernatant from cell pellet. Supernatant (100 μL) was added to microcentrifuge filters Ultracel YM-10 Microcon MWCO 10,000 (Millipore Corporation, Bedford, MA), which were pre-washed with Milli Q water to eliminate any trace of propylene glycol from the filters. Samples were centrifuged twice for 15 min at 8,500 rpm, at 4 ± C. The filtrate was collected and frozen at -80 ± C until further analysis. A solution of 3 M urea was added to the cell pellet (1:1 w/w) obtained from the first centrifugation, to lyse the cells. This mixture was vortexed three times for 30 sec, and then centrifuged for 10 min at 10,000 rpm, at 4 ± C. The supernatant obtained from the cell lysate was then added to microcentrifuge filters Ultracel YM-10 Microcon MWCO 10,000 pre-washed with Milli Q water. Samples were centrifuged twice for 15 min at 8,500 rpm, at 4 ± C. The filtrate was collected and frozen at -80 ± C until analysis.

[3] = Thermal degradation of RC-101 solution, HPLC; type: physicochemical; conditions: 500 μg/mL solution, HPLC-UV 215 nm
Experimental: For all pre-formulation studies described below, triplicate solutions of RC-101 (500 μg/mL) were prepared in either water or aqueous buffer solution. Thermal degradation studies were conducted at 25, 37, and 65°C for a minimum period of 1 week. The effect of pH on the stability of RC-101 was evaluated over the pH range from 3 to 12 using 10 mM phosphate buffer solutions, at low (50 mmol/kg) and high (500 mmol/kg) ionic strength. Oxidation of RC-101 was evaluated by exposing a solution of RC-101 to hydrogen peroxide (H2O2) at concentrations of 3.0, 0.08, and 0.002% (v/v). The high H2O2 concentration (3.0%) was selected as a forced degradation concentration. […] Protection against oxidation was investigated by the addition of antioxidants commonly used in pharmaceutical products. The antioxidants used in this study were: methionine (95.2 μg/mL or 250 μg/mL), cysteine (95.2 μg/mL), glutathione (90.9 μg/mL), vitamin E TPGS (90.9 μg/mL), ascorbic acid (1.0 mg/mL), sodium ascorbate (1.0 mg/mL), and EDTA (1.0 μg/mL).
RC-101 concentration after exposure to preformulation conditions was analyzed by HPLC as previously described [11]. Briefly, the HPLC system (Waters Corporation, Milford, MA) was equipped with an autoinjector model 717, a quaternary pump model 600, and an ultraviolet (UV) detector model 2487 set up at 215 nm. Separation of RC-101 from degradant products was achieved using a Phenomenex Jupiter 5 μC5 300 Å (4.6 × 250 mm) column (Phenomenex, Torrance, CA) protected by a Widepore C5 (4 × 3.0 mm) guard cartridge (Phenomenex). The gradient consisted of mobile phase A (0.1% TFA in water (v/v)), and mobile phase B (0.07% TFA in acetonitrile (v/v)) pumped at a flow rate of 1.0 mL/min. […]
HPLC data obtained from the preformulation studies were expressed as the average percentage of the peak area from time 0 ± standard deviation, n = 3. Results were analyzed by one-way analysis of variance (ANOVA) with multiple comparisons of individual time points by using post hoc Bonferroni correction to detect significant differences under different conditions. […]

Sequence: GICRCICGKGICRCICGR (bicyclic or more) [RC-101, cationic retrocyclin analog; circular 18-residue tetracyclic peptide with three cysteine disulfide bonds]
- effect of the folding change at pH 7 on bioactivity against HIV-1 (HIV-1): did not affect bioactivity
- activity against X4 and R5 strains of HIV-1 in vitro [1]: activity
- detection of RC-101 by LC-MS/MS ([2]; 0 h): +
- detection of RC-101 by LC-MS/MS ([2]; 2 h): +
- detection of RC-101 by LC-MS/MS ([2]; 6 h): +
- detection of RC-101 by LC-MS/MS ([2]; 12 h): +
- detection of RC-101 by LC-MS/MS ([2]; 24 h): +
- detection of RC-101 by LC-MS/MS ([2]; 48 h): +
- detection of RC-101 by LC-MS/MS ([2]; 72 h): +
- change in amount of RC-101 on storage (HPLC) ([3]; 25 °C, 13 days, % peak area of time 0, n = 3, p > 0.5): no statistically significance difference
- change in amount of RC-101 on storage (HPLC) ([3]; 37 °C, 13 days, % peak area of time 0, n = 3, p > 0.5): no statistically significance difference
- change in amount of RC-101 on storage (HPLC) ([3]; 65 °C, 168 h, compared with 25 °C, n = 3, p < 0.04): significant decrease
